Test [1] relates to IFNγ-induced NO production in RAW 264.7 cells. In words: Nitric oxide suppression assay (IFNγ-induced NO production, Griess nitrite readout). The following applies: for IC50: 2 h pretreatment, 20 ng/mL interferon gamma 24 h, average of trials per footnote, read-out: NO IC50. Format: cell-based, mouse. (In general: Nitrite, measured by Griess reagent, commonly stands in for NO production.)

Test [2] deals with AREc32 reporter cell line (luciferase reporter under eight copies of the rat GSTA2 ARE sequence). In words: AREc32 luciferase reporter activation. The following applies: for EC (2-fold): Homo sapiens, Arec32, concentration that increases the luminescence signal 2-fold above vehicle, 19 h treatment, read-out: AREc32 EC2X (Mean ± SD). Format: cell-based, human. (A reporter such as luciferase makes a cellular process visible.)

[3] abbreviates: Mus musculus, RAW264.7, RAW 264.7 cells.

SMILES strings stand for the structures. “And” between values parts separate entries of the source, which are not always exact repeats. Identical values can stand only once. Like-named read-outs stand apart in the source and are kept apart here. Marks after values point to notes of the source that are not given here. A value given as a limit tells only on which side of the number the result lay.

The term IC50 denotes the concentration that inhibits the measured activity by half.

As to `CC1(C)CC[C@]2(CNC(=O)OC(C)(C)C)CC[C@]3(C)[C@H](C(=O)C=C4[C@@]5(C)C=C(C#N)C(=O)C(C)(C)[C@@H]5CC[C@]43C)[C@@H]2C1` [CC1, reference compound], the “NO IC50 Rel. to RTA 402” value in test [1] is listed as 2.06 ± 0.56^e fold. Moreover, in test [1] (setting [3]), the IC50 stood at 5.04 ± 2.62 nM. For the same compound, in test [2], the “AREc32 EC2X Relative to RTA 402 (Mean ± SD)” value was 2.1 ± 0.00^a fold and the EC (2-fold) was found to be 0.0211 ± 0.00475 µM.
For `CC1(C)CC[C@]2(CN)CC[C@]3(C)[C@H](C(=O)C=C4[C@@]5(C)C=C(C#N)C(=O)C(C)(C)[C@@H]5CC[C@]43C)[C@@H]2C1` [CC2, reference compound], the “NO IC50 Rel. to RTA 402” value in test [1] was 1.55 fold and 1.55 ± 0.30^e fold. Besides, the IC50 in test [1] (setting [3]) turned out to be 3.15 nM. In test [2], the “AREc32 EC2X Relative to RTA 402 (Mean ± SD)” value was 1.6 ± 0.17^g fold and the EC (2-fold) was found to be 0.0161 ± 0.00081 µM.
In the case of `CC1(C)CC[C@]2(N)CC[C@]3(C)[C@H](C(=O)C=C4[C@@]5(C)C=C(C#N)C(=O)C(C)(C)[C@@H]5CC[C@]43C)[C@@H]2C1` [CC4, reference compound], in test [1], the “NO IC50 Rel. to RTA 402” value is 2.41 fold and 2.41 ± 0.49^b fold. For the same compound, the IC50 in test [1] (setting [3]) was 3.75 nM.
As to `CC(=O)N[C@]12CCC(C)(C)C[C@H]1[C@H]1C(=O)C=C3[C@@]4(C)C=C(C#N)C(=O)C(C)(C)[C@@H]4CC[C@@]3(C)[C@]1(C)CC2` [Compound 63170, reference compound], the “NO IC50 Rel. to RTA 402” value in test [1] worked out at 4.95 fold. Further, the IC50 in test [1] (setting [3]) worked out at 8.45 nM.
As for `CNC(=O)N[C@]12CCC(C)(C)C[C@H]1[C@H]1C(=O)C=C3[C@@]4(C)C=C(C#N)C(=O)C(C)(C)[C@@H]4CC[C@@]3(C)[C@]1(C)CC2` [Compound 63172, reference compound], the “NO IC50 Rel. to RTA 402” value in test [1] is on record as 7.73 fold. Besides, the 50% inhibitory concentration (IC50) in test [1] (setting [3]) came to 21.6 nM.
`C=CC(=O)N[C@]12CCC(C)(C)C[C@H]1[C@H]1C(=O)C=C3[C@@]4(C)C=C(C#N)C(=O)C(C)(C)[C@@H]4CC[C@@]3(C)[C@]1(C)CC2` [Compound 63183, reference compound]: in test [1], the “NO IC50 Rel. to RTA 402” value came out at 1.35 fold. Besides, the IC50 in test [1] (setting [3]) came to 4 nM; in test [1] (RAW 264.7 cells) it was 2.39 nM.
Regarding `CCC(=O)N[C@]12CCC(C)(C)C[C@H]1[C@H]1C(=O)C=C3[C@@]4(C)C=C(C#N)C(=O)C(C)(C)[C@@H]4CC[C@@]3(C)[C@]1(C)CC2` [Compound 63189, reference compound], the “NO IC50 Rel. to RTA 402” value in test [1] is on record as 4.06 fold. Moreover, in test [1] (setting [3]), the IC50 was found to be 7.2 nM.
`CC1(C)CC[C@]2(c3nn[nH]n3)CC[C@]3(C)[C@H](C(=O)C=C4[C@@]5(C)C=C(C#N)C(=O)C(C)(C)[C@@H]5CC[C@]43C)[C@@H]2C1` [Compound 63229, reference compound]: the “NO IC50 Rel. to RTA 402” value in test [1] is >75.85 fold. Also, in test [1] (setting [3]), the IC50 was > 200 nM.
As to `CC1(C)CC[C@]2(NC(=O)C3CC3)CC[C@]3(C)[C@H](C(=O)C=C4[C@@]5(C)C=C(C#N)C(=O)C(C)(C)[C@@H]5CC[C@]43C)[C@@H]2C1` [Compound 63236, reference compound], the “NO IC50 Rel. to RTA 402” value in test [1] came to 57.25 fold. Moreover, the 50% inhibitory concentration (IC50) in test [1] (RAW 264.7 cells) worked out at 143 nM.
Regarding `C[C@@H]1C(=O)C(C#N)=C[C@]2(C)C3=CC(=O)[C@@H]4[C@@H]5CC(C)(C)CC[C@]5(NC(=O)C5CC5)CC[C@@]4(C)[C@]3(C)CC[C@@H]12` [Compound 63866, reference compound], the “NO IC50 Rel. to RTA 402” value in test [1] amounted to 1.16 fold. Moreover, in test [1] (setting [3]), the IC50 was determined as 1.43 nM.
For the compound `CC(=O)NC[C@]12CCC(C)(C)C[C@H]1[C@H]1C(=O)C=C3[C@@]4(C)C=C(C#N)C(=O)C(C)(C)[C@@H]4CC[C@@]3(C)[C@]1(C)CC2` [Compound T3], in test [1], the “NO IC50 Rel. to RTA 402” value is 0.17 fold and 0.17 ± 0.04^e fold; the “times more active (NO IC50) than 63170 relative to RTA 402” value is listed as “more than 29 times”. The IC50 in test [1] (setting [3]) is 0.44 nM. In test [2], the “AREc32 EC2X Relative to RTA 402 (Mean ± SD)” value is recorded as 0.2 ± 0.08^a fold and the EC (2-fold) turned out to be 0.0024 ± 0.00044 µM.
Consider `CN(C[C@]12CCC(C)(C)C[C@H]1[C@H]1C(=O)C=C3[C@@]4(C)C=C(C#N)C(=O)C(C)(C)[C@@H]4CC[C@@]3(C)[C@]1(C)CC2)C(=O)OC(C)(C)C` [Compound T5], for which the “NO IC50 Rel. to RTA 402” value in test [1] is 6.04 ± 2.02^d fold. In addition, the half-maximal inhibitory concentration (IC50) in test [1] (setting [3]) is 14.2 ± 6.51 nM. Also, in test [2], the “AREc32 EC2X Relative to RTA 402 (Mean ± SD)” value was 3.9 ± 0.36^a fold and the EC (2-fold) came out at 0.0425 ± 0.00947 µM.
In the case of `CC1(C)CC[C@]2(N3CCNC3=O)CC[C@]3(C)[C@H](C(=O)C=C4[C@@]5(C)C=C(C#N)C(=O)C(C)(C)[C@@H]5CC[C@]43C)[C@@H]2C1` [Compound T30], the “NO IC50 Rel. to RTA 402” value in test [1] is 3.68 ± 0.33^d fold. For the same compound, the IC50 in test [1] (setting [3]) was 15 ± 2.92 nM.
The matching figures for `CC1(C)CC[C@]2(n3cc[nH]c3=O)CC[C@]3(C)[C@H](C(=O)C=C4[C@@]5(C)C=C(C#N)C(=O)C(C)(C)[C@@H]5CC[C@]43C)[C@@H]2C1` [Compound T45]: 4.02 ± 0.61^d fold and 16.4 ± 2.94 nM.
The matching figures for `CC1(C)CC[C@]2(CN3C(=O)CCN3C(=O)OC(C)(C)C)CC[C@]3(C)[C@H](C(=O)C=C4[C@@]5(C)C=C(C#N)C(=O)C(C)(C)[C@@H]5CC[C@]43C)[C@@H]2C1` [Compound T50]: 1.17 ± 0.18^d fold and 4.82 ± 1.3 nM.
`CN1CC(=O)N([C@]23CCC(C)(C)C[C@H]2[C@H]2C(=O)C=C4[C@@]5(C)C=C(C#N)C(=O)C(C)(C)[C@@H]5CC[C@@]4(C)[C@]2(C)CC3)CC1=O` [Compound T54]: the “NO IC50 Rel. to RTA 402” value in test [1] is given as 16.18 ± 3.50^e fold. In test [1] (setting [3]), the 50% inhibitory concentration (IC50) was 64.6 ± 19.7 nM.
The matching figures for `CC1(C)CC[C@]2(N(NC(=O)OC(C)(C)C)C(=O)OC(C)(C)C)CC[C@]3(C)[C@H](C(=O)C=C4[C@@]5(C)C=C(C#N)C(=O)C(C)(C)[C@@H]5CC[C@]43C)[C@@H]2C1` [Compound T55]: 17.42 ± 0.43^e fold and 68.9 ± 10 nM.
The matching figures for `CC1(C)CC[C@]2(n3nccc3C(F)(F)F)CC[C@]3(C)[C@H](C(=O)C=C4[C@@]5(C)C=C(C#N)C(=O)C(C)(C)[C@@H]5CC[C@]43C)[C@@H]2C1` [Compound T59]: 12.08 ± 2.93^d fold and 49.5 ± 13.8 nM.
Regarding `CC1(C)CC[C@]2(n3ccc(C(F)(F)F)n3)CC[C@]3(C)[C@H](C(=O)C=C4[C@@]5(C)C=C(C#N)C(=O)C(C)(C)[C@@H]5CC[C@]43C)[C@@H]2C1` [Compound T60], the “NO IC50 Rel. to RTA 402” value in test [1] is listed as 11.32 ± 1.49^e fold. For the same compound, the 50% inhibitory concentration (IC50) in test [1] (setting [3]) is 45.1 ± 10.6 nM.
Take `CN1CCN([C@]23CCC(C)(C)C[C@H]2[C@H]2C(=O)C=C4[C@@]5(C)C=C(C#N)C(=O)C(C)(C)[C@@H]5CC[C@@]4(C)[C@]2(C)CC3)CC1=O` [Compound T61]: in test [1], the “NO IC50 Rel. to RTA 402” value is reported as 3.18 ± 0.67^d fold. In test [1] (setting [3]), the IC50 turned out to be 13.2 ± 3.78 nM.
Take `CC1(C)CC[C@]2(CN3CC(O)C3)CC[C@]3(C)C(O)(C(=O)C=C4[C@@]5(C)C=C(C#N)C(=O)C(C)(C)[C@@H]5CC[C@]43C)[C@@H]2C1` (stereo partly drawn) [Compound T64]: the “NO IC50 Rel. to RTA 402” value in test [1] was 1.64 ± 0.16^e fold. Besides, the half-maximal inhibitory concentration (IC50) in test [1] (setting [3]) turned out to be 3.82 ± 1.76 nM.
Take `CC1(C)CC[C@]2(NC(=O)C3CC3)CC[C@]3(C)[C@H](C(=O)C=C4[C@@]5(C)C=C(C#N)C(=O)C(C)(C)[C@@H]5CC[C@]43C)[C@@H]2C1` [Compound T68]: in test [1], the “NO IC50 Rel. to RTA 402” value is on record as 6.51 ± 1.38^i fold. Besides, in test [1] (RAW 264.7 cells), the IC50 came to 11.4 ± 5.17 nM.

(Values after patent US20230111914A1, “SYNTHETIC TRITERPENOIDS WITH NITROGEN-BASED SUBSTITUENTS AT C-17 AND METHODS OF USE THEREOF” (REATA PHARMACEUTICALS, INC., priority 2019, published 2023).)
